Assay results from US6441036B1 (priority 1998, dated 2002).

System: mitochondrial β-oxidation
Experiment: Liver fatty acid oxidation in treated obese Zucker rats (Example 16)
Format: in vivo, obese Zucker (fa/fa) rats
Conditions: palmitoyl-CoA and palmitoyl-L-carnitine as substrates; chow with 0.15% TTA, 21 days
Protocol: Freshly isolated livers from individual old Zucker rats, were homogenised in ice-cold sucrose buffer (0.25 M sucrose, 10 mM HEPES (pH 7.4) and 2 mM EDTA). Post-nuclear and mitochondrial fractions were prepared using preparative differential centrifugation according to DeDuve et al. (De Duve, C., et al., Biochem. J., 60, 604-617 1955.) Modifications, purity and yield were as described earlier (Garras, A., et al., Biochim. Biophys. Acta, 1255, 154-160 1995.). Acid soluble products were measured in post-nuclear and mitochondrial enriched fractions, using [1-^14C]-palmitoyl-CoA and [1-^14C]-palmitoyl-L-carnitine (Radio-chemical Centre, Amersham, England) as substrates as described earlier (Willumsen, N., et al., J. Lipid Res., 34, 13-22 1993. Carnitine palmitoyltransferase-I and -II activities were measured in the post-nuclear and mitochondrial fractions essentially as described by Bremer (Bremer, J., Biochim. Biophys. Acta, 665, 628-631 1981.) and 3-hydroxy-3-methylglutharyl-CoA synthase was measured according to Clinkenbeard et al. (Clinkenbeard, K. D., et al., J. Biol. Chem, 250, 3108-3116 1975.) in the mitochondrial fractions.
Obese Zucker (fa/fa) rats were given a standard chow either with (n=6) or without (n=5) 0.15% TTA. Following 21 days of treatment, rats were killed by cervical dislocation and the livers were removed. […] Values are expressed as the mean±S.D.

Tetradecylthioacetic acid [TTA]
Increase of liver fatty acid oxidation (FIG. 8A): more than 7 fold
